Measured values taken from patent publication US10266560B2, “Bile acid analogs as FXR/TGR5 agonists and methods of use thereof” (Enanta Pharmaceuticals, Inc., priority 2014, dated 2019).
Where two headings read alike, the source gives them in different places.

Target: Human FXR (NR1H4) (Homo sapiens (Human), UniProt Q96RI1)
Assay: Human FXR (NR1H4) Assay (Gal4 promoter driven luciferase reporter transactivation in CHO cells)
Format: cell-based
From the text: Assays Human FXR (NR1H4) Assay
Determination of a ligand mediated Gal4 promoter driven transactivation to quantify ligand binding mediated activation of FXR. FXR Reporter Assay kit purchased from Indigo Bioscience (Catalogue number: IB00601) to determine the potency and efficacy of compound developed by Enanta that can induce FXR activation. The principle application of this reporter assay system is to quantify functional activity of human FXR. The assay utilizes non-human mammalian cells, CHO (Chinese hamster ovary) cells engineered to express human NR1H4 protein (referred to as FXR). Reporter cells also incorporate the cDNA encoding beetle luciferase which catalyzes the substrates and yields photon emission. Luminescence intensity of the reaction is quantified using a plate-reading luminometer, Envision. Reporter Cells include the luciferase reporter gene functionally linked to an FXR responsive promoter. Thus, quantifying changes in luciferase expression in the treated reporter cells provides a sensitive surrogate measure of the changes in FXR activity. […] The assay is according to the manufacturer's instructions. In brief, the assay was performed in white, 96 well plates using final volume of 200 ul containing cells with different doses of compounds. Retrieve Reporter Cells from −80° C. storage. Perform a rapid thaw of the frozen cells by transferring a 10 ml volume of 37° C. cell recovery medium into the tube of frozen cells. Recap the tube of Reporter Cells and immediately place it in a 37° C. water bath for 5-10 minutes. Retrieve the tube of Reporter Cell Suspension from the water bath. Sanitize the outside surface of the tube with a 70% alcohol swab, and then transfer it into the cell culture hood. Dispense 100 μl of cell suspension into each well of the 96-well Assay Plate. Transfer the plate into 37° C. incubator, allowing the cells adherent to the bottom of the well. Dilute compounds in Dilution Plate (DP), and administrate to cells at Assay Plate (AP). DMSO content of the samples was kept at 0.2%. Cells were incubated for additional 22 hours before luciferase activities were measured. Thirty minutes before intending to quantify FXR activity, remove Detection Substrate and Detection Buffer from the refrigerator and place them in a low-light area so that they may equilibrate to room temperature. Remove the plate's lid and discard all media contents by ejecting it into an appropriate waste container. Gently tap the inverted plate onto a clean absorbent paper towel to remove residual droplets. Cells will remain tightly adhered to well bottoms. Add 100 μl of luciferase detection reagent to each well of the assay plate. Allow the assay plate to rest at room temperature for at least 5 minutes following the addition of LDR. Set the instrument (Envision) to perform a single 5 second “plate shake” prior to reading the first assay well. Read time may be 0.5 second (500 mSec) per well.

[1] = FXR agonistic potency range; CHO reporter cells expressing human NR1H4, 22 hours incubation; read-out: EC50

Human FXR (NR1H4), sequence (Q96RI1 whole entry, the tested form may be a part): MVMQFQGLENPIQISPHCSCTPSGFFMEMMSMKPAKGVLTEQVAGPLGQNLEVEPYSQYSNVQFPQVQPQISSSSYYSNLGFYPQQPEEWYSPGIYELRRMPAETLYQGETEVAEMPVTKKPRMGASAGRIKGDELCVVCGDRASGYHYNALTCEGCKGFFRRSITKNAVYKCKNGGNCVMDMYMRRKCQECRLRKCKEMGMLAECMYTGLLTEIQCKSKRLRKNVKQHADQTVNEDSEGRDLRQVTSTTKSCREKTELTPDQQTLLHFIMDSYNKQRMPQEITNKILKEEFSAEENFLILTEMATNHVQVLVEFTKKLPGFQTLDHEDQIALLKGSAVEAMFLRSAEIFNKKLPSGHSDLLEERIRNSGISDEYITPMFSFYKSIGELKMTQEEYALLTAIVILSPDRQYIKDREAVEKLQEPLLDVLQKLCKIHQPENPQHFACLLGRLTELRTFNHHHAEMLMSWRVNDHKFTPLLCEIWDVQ

CC[C@@H]1C2C[C@H](O)CCC2(C)[C@H]2CCC3(C)C([C@H](C)CCC(=O)NS(=O)(=O)c4ccc5ccccc5c4)CC[C@H]3[C@@H]2[C@@H]1O (stereo partly drawn) [Example 472]
Emax (CHO, read-out: Efficacy (%)): 580% | EC50 [1]: < 0.1 µM

CC[C@@H]1C2C[C@H](O)CCC2(C)[C@H]2CCC3(C)C([C@H](C)CCC(=O)NS(=O)(=O)c4ccc(OC(F)(F)F)cc4)CC[C@H]3[C@@H]2[C@@H]1O (stereo partly drawn) [Example 473]
Emax (CHO, read-out: Efficacy (%)): 606% | EC50 [1]: < 0.1 µM

CC[C@@H]1C2C[C@H](O)CCC2(C)[C@H]2CCC3(C)C([C@H](C)CCC(=O)NS(=O)(=O)c4nccs4)CC[C@H]3[C@@H]2[C@@H]1O (stereo partly drawn) [Example 474]
Emax (CHO; read-out: Efficacy (%)): 463% | EC50 (read-out: EC50): 1 to 10 µM

CC[C@@H]1C2C[C@H](O)CCC2(C)[C@H]2CCC3(C)C([C@H](C)CCC(=O)NS(=O)(=O)c4ccc(C(F)(F)F)cc4)CC[C@H]3[C@@H]2[C@@H]1O (stereo partly drawn) [Example 475]
Emax (CHO, read-out: Efficacy (%)): 590% | EC50 [1]: < 0.1 µM

CC[C@@H]1C2C[C@H](O)CCC2(C)[C@H]2CCC3(C)C([C@H](C)CCC(=O)NS(=O)(=O)c4ccc(OC)c(F)c4)CC[C@H]3[C@@H]2[C@@H]1O (stereo partly drawn) [Example 476]
Emax (CHO, read-out: Efficacy (%)): 593% | EC50 [1]: < 0.1 µM

CC[C@@H]1C2C[C@H](O)CCC2(C)[C@H]2CCC3(C)C([C@H](C)CCC(=O)NS(=O)(=O)c4cccc(OC)c4)CC[C@H]3[C@@H]2[C@@H]1O (stereo partly drawn) [Example 477]
Emax (CHO, read-out: Efficacy (%)): 596% | EC50 [1]: < 0.1 µM

CC[C@@H]1C2C[C@H](O)CCC2(C)[C@H]2CCC3(C)C([C@H](C)CCC(=O)NS(=O)(=O)c4ccc(OC)c(OC)c4)CC[C@H]3[C@@H]2[C@@H]1O (stereo partly drawn) [Example 478]
Emax (CHO; read-out: Efficacy (%)): 589% | EC50 (read-out: EC50): 0.1 to 1 µM

CC[C@@H]1C2C[C@H](O)CCC2(C)[C@H]2CCC3(C)C([C@H](C)CCC(=O)NS(=O)(=O)c4cccc(Cl)c4)CC[C@H]3[C@@H]2[C@@H]1O (stereo partly drawn) [Example 479]
Emax (CHO, read-out: Efficacy (%)): 572% | EC50 [1]: < 0.1 µM

CC[C@@H]1C2C[C@H](O)CCC2(C)[C@H]2CCC3(C)C([C@H](C)CCC(=O)NS(=O)(=O)c4ccc(Cl)cc4)CC[C@H]3[C@@H]2[C@@H]1O (stereo partly drawn) [Example 480]
Emax (CHO, read-out: Efficacy (%)): 346% | EC50 [1]: < 0.1 µM

CC[C@@H]1C2C[C@H](O)CCC2(C)[C@H]2CCC3(C)C([C@H](C)CCC(=O)NS(=O)(=O)c4ccc5c(c4)OCO5)CC[C@H]3[C@@H]2[C@@H]1O (stereo partly drawn) [Example 481]
Emax (CHO, read-out: Efficacy (%)): 359% | EC50 [1]: < 0.1 µM

CC[C@@H]1C2C[C@H](O)CCC2(C)[C@H]2CCC3(C)C([C@H](C)CCC(=O)NS(=O)(=O)C4CCCC4)CC[C@H]3[C@@H]2[C@@H]1O (stereo partly drawn) [Example 482]
Emax (CHO, read-out: Efficacy (%)): 342% | EC50 [1]: < 0.1 µM

CC[C@@H]1C2C[C@H](O)CCC2(C)[C@H]2CCC3(C)C([C@H](C)CCC(=O)NS(=O)(=O)c4cccc5ccccc45)CC[C@H]3[C@@H]2[C@@H]1O (stereo partly drawn) [Example 483]
Emax (CHO, read-out: Efficacy (%)): 308% | EC50 [1]: < 0.1 µM

CC[C@@H]1C2C[C@H](O)CCC2(C)[C@H]2CCC3(C)C([C@H](C)CCC(=O)NS(=O)(=O)c4ccc(C(C)(C)C)cc4)CC[C@H]3[C@@H]2[C@@H]1O (stereo partly drawn) [Example 484]
Emax (CHO, read-out: Efficacy (%)): 349% | EC50 [1]: < 0.1 µM

CC[C@H]1[C@@H](O)[C@@H]2[C@H](CC[C@]3(C)[C@@H]([C@H](C)C[C@@H](C)C(=O)NS(=O)(=O)c4ccc(C(C)(C)C)cc4)CC[C@@H]23)[C@@]2(C)CC[C@@H](O)C[C@@H]12 [Example 485]
Emax (CHO; read-out: Efficacy (%)): 185% | EC50 (read-out: EC50): 0.1 to 1 µM

CC[C@H]1[C@@H](O)[C@@H]2[C@H](CC[C@]3(C)[C@@H]([C@H](C)C[C@@H](C)C(=O)NS(=O)(=O)C4CC4)CC[C@@H]23)[C@@]2(C)CC[C@@H](O)C[C@@H]12 [Example 486]
Emax (CHO; read-out: Efficacy (%)): 387% | EC50 (read-out: EC50): 0.1 to 1 µM

CC[C@H]1[C@@H](O)[C@@H]2[C@H](CC[C@]3(C)[C@@H]([C@H](C)C[C@@H](C)C(=O)NS(=O)(=O)c4ccc(OC(F)(F)F)cc4)CC[C@@H]23)[C@@]2(C)CC[C@@H](O)C[C@@H]12 [Example 487]
Emax (CHO, read-out: Efficacy (%)): 287% | EC50 [1]: < 0.1 µM

CC[C@H]1[C@@H](O)[C@@H]2[C@H](CC[C@]3(C)[C@@H]([C@H](C)C[C@H](C)C(=O)NS(=O)(=O)c4ccc(C(C)(C)C)cc4)CC[C@@H]23)[C@@]2(C)CC[C@@H](O)C[C@@H]12 [Example 488]
Emax (CHO; read-out: Efficacy (%)): 132% | EC50 (read-out: EC50): 0.1 to 1 µM

CC[C@H]1[C@@H](O)[C@@H]2[C@H](CC[C@]3(C)[C@@H]([C@H](C)CCC(=O)N(C)S(=O)(=O)c4ccccc4)CC[C@@H]23)[C@@]2(C)CC[C@@H](O)C[C@@H]12 [Example 489]
Emax (CHO; read-out: Efficacy (%)): 231% | EC50 (read-out: EC50): 1 to 10 µM

CC[C@H]1[C@@H](O)[C@@H]2[C@H](CC[C@]3(C)[C@@H]([C@H](C)CCCC(=O)NS(=O)(=O)C4CC4)CC[C@@H]23)[C@@]2(C)CC[C@@H](O)C[C@@H]12 [Example 490]
Emax (CHO; read-out: Efficacy (%)): 223% | EC50 (read-out: EC50): 0.1 to 1 µM

CC[C@H]1[C@@H](O)[C@@H]2[C@H](CC[C@]3(C)[C@@H]([C@H](C)CCCC(=O)NS(=O)(=O)c4ccc(C(C)(C)C)cc4)CC[C@@H]23)[C@@]2(C)CC[C@@H](O)C[C@@H]12 [Example 491]
Emax (CHO, read-out: Efficacy (%)): 182% | EC50 [1]: < 0.1 µM

CC[C@H]1[C@@H](O)[C@@H]2[C@H](CC[C@]3(C)[C@@H]([C@H](C)CCCC(=O)NS(=O)(=O)C4(C)CC4)CC[C@@H]23)[C@@]2(C)CC[C@@H](O)C[C@@H]12 [Example 492]
Emax (CHO; read-out: Efficacy (%)): 226% | EC50 (read-out: EC50): 0.1 to 1 µM
